Measurements from ChEMBL document CHEMBL3865788, “Synthesis, characterization and interaction studies of 1,3,4-oxadiazole derivatives of fatty acid with human serum albumin (HSA): A combined multi-spectroscopic and molecular docking study” (Eur J Med Chem, 2016).

Tests used:
Type in all cases: ADME
Conditions in all cases: isolated protein
Albumin [1] = molecular target: T1, Albumin (Homo sapiens, UniProt P02768); experiment: Binding affinity to human serum albumin assessed as Stern-Volmer quenching constant in steady state at 298K and pH 7.4 by fluorescence spectroscopy
Albumin [2] = molecular target: T1, Albumin; experiment: Binding affinity to human serum albumin assessed as quenching constant in steady state at 298K and pH 7.4 by fluorescence spectroscopy
Albumin [3] = molecular target: T1, Albumin; experiment: Binding affinity to human serum albumin assessed as absorbance at 280 nanometer at 50 and 100 uM by UV-vis spectroscopy
Albumin [4] = molecular target: T1, Albumin; experiment: Binding affinity to human serum albumin assessed as binding constant in steady state at 298K and pH 7.4 by fluorescence spectroscopy

T1 sequence (P02768 whole entry): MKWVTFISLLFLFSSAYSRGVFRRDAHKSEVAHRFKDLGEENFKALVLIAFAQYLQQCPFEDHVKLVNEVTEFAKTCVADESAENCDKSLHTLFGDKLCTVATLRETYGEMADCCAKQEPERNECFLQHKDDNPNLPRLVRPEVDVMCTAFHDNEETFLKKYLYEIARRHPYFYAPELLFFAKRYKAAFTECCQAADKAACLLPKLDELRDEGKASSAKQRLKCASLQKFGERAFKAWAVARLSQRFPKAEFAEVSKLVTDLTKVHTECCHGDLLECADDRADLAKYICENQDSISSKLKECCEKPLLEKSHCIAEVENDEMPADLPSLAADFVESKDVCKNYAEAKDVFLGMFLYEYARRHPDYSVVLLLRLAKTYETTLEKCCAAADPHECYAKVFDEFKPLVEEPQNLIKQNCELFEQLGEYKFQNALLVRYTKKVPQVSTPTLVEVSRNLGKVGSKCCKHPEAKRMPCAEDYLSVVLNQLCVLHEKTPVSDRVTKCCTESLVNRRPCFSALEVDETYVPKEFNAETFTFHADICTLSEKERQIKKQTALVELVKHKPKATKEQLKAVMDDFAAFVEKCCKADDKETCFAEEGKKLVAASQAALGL

For CCCCCCCC/C=C\CCCCCCCc1nnc(C)o1, the KSV (Albumin [1]) was 3.6 ×10³ /M, the Kq (Albumin [2]) was 6.4 ×10¹¹ /M/s and the Activity (Albumin [3]) was < 0.03. It also gave a Kb (Albumin [4]) of 2.95 ×10³ /M.
